{"source": "patent US12285034B2", "about": "“Human and non-human animal use of microbial anaplerotic oil” (HELIAE DEVELOPMENT, LLC, priority 2017, dated 2025)", "key": {"[1]": {"test_system": "Aurantiochytrium acetophilum HS399", "format": "cell-based", "details": "acetic acid titrant (control), pH 7", "method": "In this implementation, initially (24 h incubation), the culture pH may not be controlled, and the pH of the respective treatments can drift from 7.5 to 8. After 24 h incubation, the desired pH set point of each treatment can be set using the respective organic acids. […] The cultures are aerated at 1.4 vvm and maintained at 27° C. under axenic conditions. […] This medium also contains a trace element solution (5 ml/L) and a vitamin solution (1 ml/L). The trace element solution can contain (g/L): […] […] Residual glucose is analyzed from culture supernatant (5000 g; 5 min) using a colorimetric method based on glucose […] activity. Residual acetate and propionate are analyzed by HPLC using external standard."}, "[2]": {"test_system": "Yarrowia lipolytica ATCC18944", "format": "cell-based", "details": "192 h, itaconic acid 0.5 / propionate 6 g/L", "method": "Culture conditions. In one implementation, Yarrowia lipolytica ATCC18944 can be cultivated in triplicates (n=3) in a medium containing (g/L): glycerol (80), monosodium […]), yeast extract (1), NaCl (12.5), MgSO4 (7), H2O (2.5), KCl (0.5), CaCl2 (0.1), KH2PO4 (0.5), trace metal solution (5 mL) and vitamin solution (1 mL). The trace element solution may contain (g/L): […] The vitamin solution can be filter-sterilized (e.g., using 0.2 μm pore size filter) containing (mg L-1): thiamine (100), biotin (0.5) and cyanocobalamin (0.5) unless otherwise stated. In some implementations cyanocobalamin might be added to or subtracted from the medium formulation to change or impact propionic acid deposition in OCFA. […] In one implementation, a concentration of the cyanocobalamin and/or cobalt in the culture medium can be below 0.4 μM. […] The flasks can be incubated in the dark in an orbital shaker at 180 rpm, 27° C. In this implementation, sodium propionate is fed batch every day according to respective treatments. […] Analyses. Cell dry weights can be obtained by drying samples that are previously vacuum filtrated (e.g., using 0.2 μm pore size filters). Residual propionate is analyzed directly by high performance liquid chromatography (HPLC). Lipids and total fatty acids are analyzed using a direct extraction, transesterification followed by gas chromatography (GC) and detection by flame ionization (FID). The different fatty acids are identified and quantified using appropriate internal and external standards. Propionic acid deposition rate."}, "[3]": {"test_system": "Aurantiochytrium acetophilum HS399", "assay": "Alternative promoters of OCFA production (Example 17)", "details": "for capacity to induce the production of OCFAs: flask cultures", "method": "Further, it may be beneficial to find alternative promotors to produce OCFA that are less toxic to the model organisms or that are simpler. In this implementation, pentanoate, heptanoate, yeast extract, proteose peptone, methionine, valine and isoleucine are evaluated for their capacity to induce the production of OCFAs. Erlenmeyer flasks can be used and A. acetophilum HS399 can be cultured following the protocols described herein.\nIn this implementation, respective flasks can be supplemented with different concentrations of the proposed promoters and the resulting biomass harvested and analyzed for total lipid and fatty acid analyses."}, "[4]": {"test_system": "Aurantiochytrium acetophilum HS399", "assay": "Cyanocobalamin and propionate deposition, flask (Example 10)", "format": "cell-based"}, "[5]": {"test_system": "Aurantiochytrium acetophilum HS399", "assay": "Cyanocobalamin impact on propionate metabolism (Example 21)", "format": "cell-based", "method": "Aurantiochytrium acetophilum HS399 was cultivated in the presence and absence of cyanocobalamin. […] The trace element solution contained (g/L): […] The vitamin solution contained (mg/L): thiamine (100) and biotin (0.5). All culture materials were autoclaved (121° C., 15 min) and media was filter sterilized before use. […] Biomass for lipid analysis was centrifuged and washed using purified water. The washed biomass was freeze dried. […] As described above, OCFAs anaplerosis can merely take place in the presence of cyanocobalamin. In this implementation, the cell dry weight and residual propionate can be monitored, and residual glucose in the media can be analyzed."}, "[6]": {"test_system": "Aurantiochytrium acetophilum HS399", "assay": "Cyanocobalamin impact on glucose metabolism (Examples 16, 20)", "format": "cell-based", "details": "cyanocobalamin 0.37 μM vs 0, propionic acid 3 and 9 g/L", "method": "(§1) As described above, OCFAs anaplerosis can merely take place in the presence of cyanocobalamin. In this implementation, the cell dry weight and residual propionate can be monitored, and residual glucose in the media can be analyzed.\nAurantiochytrium acetophilum HS399 was cultivated in the presence and absence of cyanocobalamin. […] The vitamin solution contained (mg/L): thiamine (100) and biotin (0.5). All culture materials were autoclaved (121° C., 15 min) and media was filter sterilized before use. […] Biomass for lipid analysis was centrifuged and washed using purified water. The washed biomass was freeze dried.\nas §1, with “analyzed. […] Cell dry weight reached the same titers independently of the cyanocobalamin concentration.” for “analyzed.”"}, "[7]": {"details": "cyanocobalamin 370 nM vs 0, propionic acid 16 g/L"}}, "data": [{"molecule": "CC(=O)O", "note": "[Acetic acid, acetic acid, reference compound]", "values": [{"measurement": "Total Fatty Acid", "setting": "[1]", "value": "71.9 ± 5.2", "unit": "% CDW"}, {"measurement": "Total Lipids", "setting": "[1]", "value": "89.5 ± 0.5", "unit": "% CDW"}]}, {"molecule": "C=C(CC(=O)O)C(=O)O", "note": "[Itaconic acid, itaconic acid, reference compound]", "values": [{"measurement": "Cell dry weight", "setting": "[2]", "value": "7.9 ± 1.1", "unit": "g/L"}, {"measurement": "Consumed propionate", "setting": "[2]", "value": "5.0 ± 1.6", "unit": "g/L"}, {"measurement": "Odd chain fatty acids", "setting": "[2]", "value": "1.1 ± 0.6", "unit": "% DW"}, {"measurement": "Propionic acid deposition", "setting": "[2]", "value": "0.5 ± 0.2", "unit": "%"}]}, {"molecule": "CCCCCCC(=O)O", "note": "[heptanoate, heptanoic acid]", "values": [{"measurement": "toxicity (growth inhibition)", "setting": "[3]; FIG. 53", "value": "higher than that of propionic acid"}]}, {"molecule": "CC[C@H](C)[C@H](N)C(=O)O", "note": "[isoleucine]", "values": [{"measurement": "capacity to induce the production of OCFAs", "setting": "[3]", "value": "identified as a nitrogen and OCFAs source"}]}, {"molecule": "CSCC[C@H](N)C(=O)O", "note": "[methionine, reference compound]", "values": [{"measurement": "effect of supplementation on growth", "setting": "[4]; 0.5 g/L, with or without cyanocobalamin 0.00037 μM", "value": "does not appear to have an impact in growth"}]}, {"molecule": "CC(C)[C@H](N)C(=O)O", "note": "[valine]", "values": [{"measurement": "capacity to induce the production of OCFAs", "setting": "[3]", "value": "identified as a nitrogen and OCFAs source"}]}, {"molecule": "cyanocobalamin", "values": [{"measurement": "effect of cyanocobalamin deprived media on growth", "setting": "[4]; over 10 generations", "value": "substantially no impact on growth"}, {"measurement": "effect on cell dry weight", "setting": "[5]; [7]", "value": "positive difference in cell dry weight"}, {"measurement": "glucose uptake rate", "setting": "[5]; [7]", "value": "significantly (P<0.01 t-student) lower"}, {"measurement": "residual propionate in cultures deficient in cyanocobalamin", "setting": "[5]; propionic acid 16 g/L, FIG. 58", "value": "chronical higher residual propionate"}, {"measurement": "glucose uptake rate", "setting": "[6]", "value": "significantly (P<0.01 t-student) lower"}, {"measurement": "growth in the first 48 hrs", "setting": "[6]", "value": "may not be impacted"}]}]}
